According to PubChem BioAssay (NCI):
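Growth conditions: 96-well plates. Treatment: test compound, 48 hours, 5 concentrations. Analysis: linear interpolation between bracketing concentrations; unreached endpoints set to highest concentration. GI50 marks 50% less growth. The concentration for full growth arrest is given as TGI.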

Columns and labels:
Experiment in all cases: inhibition of tumour cell growth, NCI panel, 48 h
HCT-15 colon = test system: HCT-15 colon
KM12 colon = test system: KM12 colon
LOX IMVI melanoma = test system: LOX IMVI melanoma
UO-31 renal = test system: UO-31 renal
BT-549 breast = test system: BT-549 breast
HT29 colon = test system: HT29 colon
MALME-3M melanoma = test system: MALME-3M melanoma
M14 melanoma = test system: M14 melanoma
T-47D breast = test system: T-47D breast
SW-620 colon = test system: SW-620 colon
HCT-116 colon = test system: HCT-116 colon
SK-MEL-5 melanoma = test system: SK-MEL-5 melanoma
HOP-62 NSCLC = test system: HOP-62 NSCLC
786-0 renal = test system: 786-0 renal
K-562 leukemia = test system: K-562 leukemia
HS 578T breast = test system: HS 578T breast
SF-539 CNS = test system: SF-539 CNS
MCF7 breast = test system: MCF7 breast
ACHN renal = test system: ACHN renal
MDA-MB-231 breast = test system: MDA-MB-231 breast
COLO 205 colon = test system: COLO 205 colon
TK-10 renal = test system: TK-10 renal
SNB-75 CNS = test system: SNB-75 CNS
SN12C renal = test system: SN12C renal
U251 CNS = test system: U251 CNS
NCI/ADR-RES ovarian = test system: NCI/ADR-RES ovarian
MDA-MB-435 = test system: MDA-MB-435
OVCAR-4 ovarian = test system: OVCAR-4 ovarian
CAKI-1 renal = test system: CAKI-1 renal
EKVX NSCLC = test system: EKVX NSCLC
SR leukemia = test system: SR leukemia
HL-60(TB) leukemia = test system: HL-60(TB) leukemia
IGROV1 ovarian = test system: IGROV1 ovarian
OVCAR-8 ovarian = test system: OVCAR-8 ovarian
NCI-H23 lung = test system: NCI-H23 lung
UACC-62 melanoma = test system: UACC-62 melanoma
SK-MEL-2 melanoma = test system: SK-MEL-2 melanoma
PC-3 prostate = test system: PC-3 prostate
UACC-257 melanoma = test system: UACC-257 melanoma
SF-295 CNS = test system: SF-295 CNS
SK-MEL-28 melanoma = test system: SK-MEL-28 melanoma
HOP-92 NSCLC = test system: HOP-92 NSCLC
NCI-H522 lung = test system: NCI-H522 lung
OVCAR-3 ovarian = test system: OVCAR-3 ovarian
A549 NSCLC = test system: A549 NSCLC
NCI-H460 lung = test system: NCI-H460 lung
OVCAR-5 ovarian = test system: OVCAR-5 ovarian
RXF 393 renal = test system: RXF 393 renal
DU-145 prostate = test system: DU-145 prostate
MOLT-4 leukemia = test system: MOLT-4 leukemia
SK-OV-3 ovarian = test system: SK-OV-3 ovarian
SNB-19 CNS = test system: SNB-19 CNS
SF-268 CNS = test system: SF-268 CNS
NCI-H226 lung = test system: NCI-H226 lung
HCC-2998 colon = test system: HCC-2998 colon
A498 renal = test system: A498 renal
RPMI-8226 leukemia = test system: RPMI-8226 leukemia
CCRF-CEM leukemia = test system: CCRF-CEM leukemia

`COc1ccc(C2=C(Cl)C(=O)N(c3ccc(OC)cc3OC)C(=O)C2(Cl)Cl)cc1` was tested, and the TGI (HCT-15 colon) was 27.9 µM, the TGI (KM12 colon) was 33.6 µM and the TGI (LOX IMVI melanoma) was 30.8 µM. It also gave a TGI (UO-31 renal) of 37.4 µM, a TGI (BT-549 breast) of 77.3 µM and a TGI (HT29 colon) of 38.4 µM. The TGI (MALME-3M melanoma) was 35.8 µM, the TGI (M14 melanoma) was 29.7 µM and the TGI (T-47D breast) was 30.3 µM. The TGI (SW-620 colon) was 30.1 µM, the TGI (HCT-116 colon) was 28.9 µM and the TGI (SK-MEL-5 melanoma) was 28.1 µM. The TGI (HOP-62 NSCLC) was 36.9 µM, the TGI (786-0 renal) was 29 µM and the TGI (K-562 leukemia) was > 100 µM. It also gave a TGI (HS 578T breast) of 16.4 µM, a TGI (SF-539 CNS) of 23.5 µM and a TGI (MCF7 breast) of 64.7 µM. The TGI (ACHN renal) was 29.1 µM, the TGI (MDA-MB-231 breast) was 20.5 µM and the TGI (COLO 205 colon) was 39.4 µM. The TGI (TK-10 renal) was 37.7 µM, the TGI (SNB-75 CNS) was 90.3 µM and the TGI (SN12C renal) was 13.8 µM. For the same molecule, the TGI (U251 CNS) was 30.2 µM, the TGI (NCI/ADR-RES ovarian) was 41.9 µM and the TGI (MDA-MB-435) was 34.4 µM. The TGI (OVCAR-4 ovarian) was 32.2 µM, the TGI (CAKI-1 renal) was 25.2 µM and the TGI (EKVX NSCLC) was 87.1 µM. It also gave a TGI (SR leukemia) of 36.4 µM, a TGI (HL-60(TB) leukemia) of 69.8 µM and a TGI (IGROV1 ovarian) of 44.3 µM. For the same molecule, the TGI (OVCAR-8 ovarian) was 52.4 µM, the TGI (NCI-H23 lung) was 31 µM and the TGI (UACC-62 melanoma) was 28 µM. It also gave a TGI (SK-MEL-2 melanoma) of 63.6 µM, a TGI (PC-3 prostate) of 33.5 µM and a TGI (UACC-257 melanoma) of 39.3 µM. It also gave a TGI (SF-295 CNS) of 66.4 µM, a TGI (SK-MEL-28 melanoma) of 36.1 µM and a TGI (HOP-92 NSCLC) of 36.6 µM. The TGI (NCI-H522 lung) was 36.5 µM, the TGI (OVCAR-3 ovarian) was 25 µM and the TGI (A549 NSCLC) was > 100 µM. The TGI (NCI-H460 lung) was > 100 µM, the TGI (OVCAR-5 ovarian) was 27.6 µM and the TGI (RXF 393 renal) was 57 µM. For the same molecule, the TGI (DU-145 prostate) was 31 µM, the TGI (MOLT-4 leukemia) was 74 µM and the TGI (SK-OV-3 ovarian) was > 100 µM. The TGI (SNB-19 CNS) was > 100 µM, the TGI (SF-268 CNS) was 65.9 µM and the TGI (NCI-H226 lung) was 27.1 µM.
For `COc1ccc(NC(=O)Nc2ccccc2CNc2nc(Nc3ccc(OCCN4CCCC4)cc3)ncc2Cl)cc1`, the GI50 (HCT-15 colon) was 0.878 µM, the TGI (HCT-15 colon) was 1.76 µM and the GI50 (KM12 colon) was 0.947 µM. The TGI (KM12 colon) was 1.77 µM, the GI50 (LOX IMVI melanoma) was 0.894 µM and the TGI (LOX IMVI melanoma) was 1.64 µM. For the same molecule, the GI50 (UO-31 renal) was 0.763 µM, the TGI (UO-31 renal) was 1.44 µM and the GI50 (BT-549 breast) was 0.788 µM. For the same molecule, the TGI (BT-549 breast) was 1.54 µM, the GI50 (HT29 colon) was 1.1 µM and the TGI (HT29 colon) was 2.6 µM. The GI50 (MALME-3M melanoma) was 0.845 µM, the TGI (MALME-3M melanoma) was 1.58 µM and the GI50 (HCC-2998 colon) was 1.01 µM. For the same molecule, the TGI (HCC-2998 colon) was 2.18 µM, the GI50 (M14 melanoma) was 0.833 µM and the TGI (M14 melanoma) was 1.64 µM. The GI50 (T-47D breast) was 1.02 µM, the TGI (T-47D breast) was 2.54 µM and the GI50 (SW-620 colon) was 1.05 µM. For the same molecule, the TGI (SW-620 colon) was 2.5 µM, the GI50 (HCT-116 colon) was 0.902 µM and the TGI (HCT-116 colon) was 1.75 µM. For the same molecule, the GI50 (SK-MEL-5 melanoma) was 0.849 µM, the TGI (SK-MEL-5 melanoma) was 1.55 µM and the GI50 (786-0 renal) was 0.882 µM. The TGI (786-0 renal) was 1.64 µM, the GI50 (K-562 leukemia) was 1.63 µM and the TGI (K-562 leukemia) was > 50 µM. For the same molecule, the GI50 (HS 578T breast) was 1.01 µM, the TGI (HS 578T breast) was 2.38 µM and the GI50 (SF-539 CNS) was 0.825 µM. For the same molecule, the TGI (SF-539 CNS) was 1.54 µM, the GI50 (MCF7 breast) was 0.926 µM and the TGI (MCF7 breast) was 1.78 µM. It also gave a GI50 (ACHN renal) of 0.862 µM, a TGI (ACHN renal) of 1.55 µM and a GI50 (A498 renal) of 0.963 µM. The TGI (A498 renal) was 3.27 µM, the GI50 (MDA-MB-231 breast) was 0.953 µM and the TGI (MDA-MB-231 breast) was 1.74 µM. It also gave a GI50 (TK-10 renal) of 0.99 µM, a TGI (TK-10 renal) of 1.98 µM and a GI50 (SNB-75 CNS) of 0.755 µM. It also gave a TGI (SNB-75 CNS) of 1.45 µM, a GI50 (NCI/ADR-RES ovarian) of 1.1 µM and a TGI (NCI/ADR-RES ovarian) of 2.64 µM. For the same molecule, the GI50 (MDA-MB-435) was 0.874 µM, the TGI (MDA-MB-435) was 1.61 µM and the GI50 (OVCAR-4 ovarian) was 0.879 µM. For the same molecule, the TGI (OVCAR-4 ovarian) was 1.69 µM, the GI50 (CAKI-1 renal) was 0.867 µM and the TGI (CAKI-1 renal) was 1.61 µM. The GI50 (EKVX NSCLC) was 2.65 µM, the TGI (EKVX NSCLC) was 9.45 µM and the GI50 (SR leukemia) was 1.54 µM. For the same molecule, the TGI (SR leukemia) was > 50 µM, the GI50 (HL-60(TB) leukemia) was 1.15 µM and the TGI (HL-60(TB) leukemia) was 2.59 µM. The GI50 (RPMI-8226 leukemia) was 1.73 µM, the TGI (RPMI-8226 leukemia) was > 50 µM and the GI50 (IGROV1 ovarian) was 0.894 µM. The TGI (IGROV1 ovarian) was 1.66 µM, the GI50 (NCI-H23 lung) was 2.01 µM and the TGI (NCI-H23 lung) was 8.72 µM. It also gave a GI50 (UACC-62 melanoma) of 0.869 µM, a TGI (UACC-62 melanoma) of 1.63 µM and a GI50 (SK-MEL-2 melanoma) of 1.12 µM. The TGI (SK-MEL-2 melanoma) was 2.58 µM, the GI50 (PC-3 prostate) was 1.2 µM and the TGI (PC-3 prostate) was 2.96 µM. It also gave a GI50 (UACC-257 melanoma) of 0.926 µM, a TGI (UACC-257 melanoma) of 1.73 µM and a GI50 (SF-295 CNS) of 0.853 µM. It also gave a TGI (SF-295 CNS) of 1.6 µM, a GI50 (SK-MEL-28 melanoma) of 0.87 µM and a TGI (SK-MEL-28 melanoma) of 1.62 µM. The GI50 (HOP-92 NSCLC) was 0.877 µM, the TGI (HOP-92 NSCLC) was 2.37 µM and the GI50 (NCI-H522 lung) was 1.04 µM. The TGI (NCI-H522 lung) was 2.31 µM, the GI50 (OVCAR-3 ovarian) was 0.923 µM and the TGI (OVCAR-3 ovarian) was 1.73 µM. For the same molecule, the GI50 (CCRF-CEM leukemia) was 1.68 µM, the TGI (CCRF-CEM leukemia) was > 50 µM and the GI50 (OVCAR-5 ovarian) was 1.02 µM. The TGI (OVCAR-5 ovarian) was 2.08 µM, the GI50 (RXF 393 renal) was 0.828 µM and the TGI (RXF 393 renal) was 1.64 µM. It also gave a GI50 (DU-145 prostate) of 1.24 µM, a TGI (DU-145 prostate) of 3.42 µM and a GI50 (SNB-19 CNS) of 2.14 µM. For the same molecule, the TGI (SNB-19 CNS) was 9.2 µM.
